Measurements from US7419966B2, “[5-carboxamido or 5-fluoro]-[2′,3′-unsaturated or 3′-modified]-pyrimidine nucleosides” (Emory University, priority 1995, dated 2008).
Like-named read-outs stand apart in the source and are kept apart here.

Legend:
Assay type in all cases: cell-based
HIV-1 (strain LAV) = assay: Anti-HIV-1 activity in PHA-stimulated human PBM cells (reverse transcriptase readout)
Experimental: The ability of nucleosides to inhibit HIV can be measured by various experimental techniques. The technique used herein, and described in detail below, measures the inhibition of viral replication in phytohemagglutinin (PHA) stimulated human peripheral blood mononuclear (PBM) cells infected with HIV-1. (strain LAV). The amount of virus produced is determined by measuring the virus-coded reverse transcriptase enzyme. The amount of enzyme produced is proportional to the amount of virus produced.
Three-day-old phytohemagglutinin-stimulated PBM cells (10^6 cells/ml) from hepatitis B and HIV-1 seronegative healthy donors were infected with HIV-1 (strain LAV) at a concentration of about 100 times the 50% tissue culture infectious dose (TICD 50) per ml and cultured in the presence and absence of various concentrations of antiviral compounds.
Approximately one hour after infection, the medium, with the compound to be tested (2 times the final concentration in medium) or without compound, was added to the flasks (5 ml; final volume 10 ml). AZT was used as a positive control.
The cells were exposed to the virus (about 2×10^5 dpm/ml, as determined by reverse transcriptase assay) and then placed in a CO2 incubator. HIV-1 (strain LAV) was obtained from the Center for Disease Control, Atlanta, Ga. The methods used for culturing the PBM cells, harvesting the virus and determining the reverse transcriptase activity were those described by McDougal et al. (J. Immun. Meth. 76, 171-183, 1985) and Spira et al. (J. Clin. Meth. 25, 97-99, 1987), except that fungizone was not included in the medium (see Schinazi, et al., Antimicrob. Agents Chemother. 32, 1784-1787 (1988); Id., 34:1061-1067 (1990)).
On day 6, the cells and supernatant were transferred to a 15 ml tube and centrifuged at about 900 g for 10 minutes. Five ml of supernatant were removed and the virus was concentrated by centrifugation at 40,000 rpm for 30 minutes (Beckman 70.1 Ti rotor). The solubilized virus pellet was processed for determination of the levels of reverse transcriptase. Results are expressed in dpm/ml of sampled supernatant. Virus from smaller volumes of supernatant (1 ml) can also be concentrated by centrifugation prior to solubilization and determination of reverse transcriptase levels.

CEM cells = assay: Toxicity in CEM cells
[1] = system: uninfected human PBM cells; assay: Toxicity in mitogen-stimulated uninfected human PBM cells (cell count, trypan blue exclusion)
Experimental: Mitogen stimulated uninfected human PBM cells (3.8×10^5 cells/ml) were cultured in the presence and absence of drug under similar conditions as those used for the antiviral assay described above. The cells were counted after 6 days using a hemacytometer and the trypan blue exclusion method, as described by Schinazi et al., Antimicrobial Agents and Chemotherapy, 22(3), 499 (1982). […]

Vero cells = assay: Toxicity in Vero cells
HSV-1F = assay: Anti-HSV-1 activity in Vero cells; settings: Table 1
HIV-2ROD2 = assay: Anti-HIV-2 activity in PBMC
SIVSMM = assay: Anti-SIV activity in PBMC
[2] = system: hepatitis B virus in transfected HepG-2 (2.2.15) cells; assay: Anti-HBV activity in 2.2.15 cell cultures (HBV virion DNA and replicative intermediates); settings: for EC50 / EC90: Table 2, day 9; for activity against HBV, in words: text b71, b81
Experimental: The ability of the active compounds to inhibit the growth of virus in 2.2.15 cell cultures (HepG2 cells transformed with hepatitis virion) can be evaluated as described in detail below.
A summary and description of the assay for antiviral effects in this culture system and the analysis of HBV DNA has been described (Korba and Milman, 1991, Antiviral Res., 15:217). The antiviral evaluations were performed on two separate passages of cells. All wells, in all plates, were seeded at the same density and at the same time.
Due to the inherent variations in the levels of both intracellular and extracellular HBV DNA, only depressions greater than 3.5-fold (for HBV virion DNA) or 3.0-fold (for HBV DNA replication intermediates) from the average levels for these HBV DNA forms in untreated cells are considered to be statistically significant [P<0.05]. The levels of integrated HBV DNA in each cellular DNA preparation (which remain constant on a per cell basis in these experiments) were used to calculate the levels of intracellular HBV DNA forms, thereby ensuring that equal amounts of cellular DNA were compared between separate samples.
Typical values for extracellular HBV virion DNA in untreated cells ranged from 50 to 150 pg/ml culture medium (average of approximately 76 pg/ml). Intracellular HBV DNA replication intermediates in untreated cells ranged from 50 to 100 pg/μg cell DNA (average approximately 74 pg/μg cell DNA). In general, depressions in the levels of intracellular HBV DNA due to treatment with antiviral compounds are less pronounced, and occur more slowly, than depressions in the levels of HBV virion DNA (Korba and Milman, 1991, Antiviral Res., 15:217).

[3] = system: 2.2.15 cells (HepG2 cells transformed with hepatitis virion); assay: Toxicity in 2.2.15 cells by neutral red dye uptake; settings: for toxicity, in words: HBV assay; for IC50: Table 2, 2.2.15 cells, read-out: Cytotoxicity IC50 ± SD
Experimental: Toxicity analyses were performed to assess whether any observed antiviral effects were due to a general effect on cell viability. The method used herein was the measurement of the uptake of neutral red dye, a standard and widely used assay for cell viability in a variety of virus-host systems, including HSV and HIV. Toxicity analyses were performed in 96-well flat bottomed tissue culture plates. Cells for the toxicity analyses were cultured and treated with test compounds with the same schedule as described for the antiviral evaluations below. Each compound was tested at 4 concentrations, each in triplicate cultures (wells “A”, “B”, and “C”). Uptake of neutral red dye was used to determine the relative level of toxicity. The absorbance of internalized dye at 510 nm (Asin) was used for the quantitative analysis. Values are presented as a percentage of the average Asin values in 9 separate cultures of untreated cells maintained on the same 96-well plate as the test compounds. Dye uptake in the 9 control cultures on plate 5 ranged from 91.6% to 110.4%, and on plate 6 from 96.6% to 109%.

various cell lines = assay: Toxicity in various cell lines (PBM, CEM, Vero); settings: various cell lines
[4] = Table 1, HIV-1LAI, human PBM cells, estimated 10% error factor, read-out: Anti-HIV-1 in PBMC EC50
[5] = Table 1, uninfected human PBM cells, 6 days
[6] = extracellular DNA, untreated control 102 pg/ml, read-out: HBV virion EC50 ± SD
[7] = extracellular DNA, untreated control 102 pg/ml, read-out: HBV virion EC90 ± SD
[8] = replicative intermediates (intracellular DNA), untreated control 87 pg/μg cell DNA, read-out: HBV RI EC50 ± SD
[9] = replicative intermediates (intracellular DNA), untreated control 87 pg/μg cell DNA, read-out: HBV RI EC90 ± SD

Row | Compound | EC50 (HIV-1 (strain LAV); [4]) [µM] | IC50 (CEM cells; Table 1) [µM] | IC50 [1, 5] [µM] | IC50 (Vero cells; Table 1) [µM] | further results
1 | C#Cc1cn([C@@H]2CS[C@H](CO)O2)c(=O)[nH]c1=O (racemic) [U Ethynyl (±)-β-DL] | 23.8 | > 100 | > 100 | > 100 | 
2 | O=c1[nH]c(=O)n([C@@H]2CS[C@H](CO)O2)cc1[N+](=O)[O-] (racemic) [U Nitro (±)-β-DL] | 122 | > 100 | > 100 | > 100 | 
3 | COC(=O)c1cn([C@@H]2CS[C@H](CO)O2)c(=O)[nH]c1=O (racemic) [U Methoxycarbonyl (±)-β-DL] | > 100 | > 100 | > 100 | > 100 | EC50 (HSV-1F): > 100 µM
4 | CCc1cn([C@@H]2CS[C@H](CO)O2)c(=O)nc1N (racemic) [C Ethyl (±)-β-DL] | 102 | > 100 | > 100 | > 100 | 
5 | CN(C)C(=O)c1cn([C@@H]2CS[C@H](CO)O2)c(=O)nc1N (racemic) [C N,N-Dimethylaminoformyl (±)-β-DL] | > 100 | > 100 | > 100 | > 100 | 
6 | CCc1cn([C@@H]2CS[C@H](CO)O2)c(=O)[nH]c1=O (racemic) [U Ethyl (±)-β-DL] | > 100 | > 100 | > 100 | > 100 | 
7 | NC(=O)c1cn([C@@H]2CS[C@H](CO)O2)c(=O)[nH]c1=O (racemic) [U Carboxamide (±)-β-DL, 5-carboxamide-2′,3′-dideoxy-3′-thiauridine] | > 100 | > 100 | > 100 | > 100 | 
8 | Nc1cn([C@@H]2CS[C@H](CO)O2)c(=O)nc1N (racemic) [C Amino (±)-β-DL] | 26.4 | > 100 | > 100 | > 100 | 
9 | Nc1ccn([C@@H]2CS[C@H](CO)O2)c(=O)n1 (single isomer, unassigned) [3TC, (−)-enantiomer of 2-hydroxymethyl-5-(cytosin-1-yl)-1,3-oxathiolane, reference compound] | 0.002 | > 100 | > 100 | > 100 | EC50 (HIV-2ROD2; Table 3, HIV-2ROD2, read-out: Anti-HIV-2 in PBMC EC50): 0.02 µM; EC50 (HIV-1 (strain LAV); Table 3, HIV-1LAI, estimated 10% error factor, read-out: Anti-HIV-1 in PBMC EC50): 0.002 µM; IC50 (CEM cells; Table 3): > 100 µM; IC50 ([1]; Table 3): > 100 µM; EC50 (HSV-1F): > 100 µM; EC50 (SIVSMM; Table 3, SIVSMM, read-out: Anti-SIV in PBMC EC50): 0.02 µM; IC50 (Vero cells; Table 3): > 100 µM
10 | Nc1cn([C@@H]2CS[C@H](CO)O2)c(=O)[nH]c1=O (racemic) [U Amino (±)-β-DL] | 119 | > 100 | > 100 | > 100 | 
11 | Nc1nc2c(ncn2COCCO)c(=O)[nH]1 [Acyclovir, reference compound] |  |  |  |  | EC50 (HSV-1F; Human alphaherpesvirus 1, Vero): 0.04 µM
12 | NC(=O)c1cn([C@@H]2CS[C@H](CO)O2)c(=O)nc1N [C Carboxamide (−)-β-L, 5-carboxylic acid amide-2′,3′-dideoxy-3′-thiacytidine] | 3.6 | > 100 | > 100 | > 100 | EC50 (HIV-2ROD2; Table 1 footnote b, read-out: EC50 against HIV-2ROD2): 1.6 µM; EC50 [2, 6]: 0.29 ± 0.02 µM; EC90 [2, 7]: 1.5 ± 0.2 µM; EC50 [2, 8]: 1.3 ± 0.1 µM; EC90 [2, 9]: 9.9 ± 0.8 µM; activity against HBV, in words [2]: significant activity against HBV; EC50 (SIVSMM; Table 1 footnote b, read-out: EC50 against SIVSMM): 4 µM; toxicity, in words [3]: relatively nontoxic; IC50 [3]: 1750 ± 212 µM
13 | 5-carboxylic acid amide-2′,3′-dideoxy-3′-thiacytidine [C Carboxamide (+)-β-D] | 8.5 |  |  |  | EC50 [2, 6]: 0.11 ± 0.012 µM; EC90 [2, 7]: 0.9 ± 0.1 µM; EC50 [2, 8]: 0.5 ± 0.04 µM; EC90 [2, 9]: 3.8 ± 0.3 µM; activity against HBV, in words [2]: significant activity against HBV; toxicity, in words [3]: relatively nontoxic; IC50 [3]: 1120 ± 72 µM
14 | CNC(=O)c1cn([C@@H]2CS[C@H](CO)O2)c(=O)nc1N (racemic) [C N-Methylaminoformyl (±)-β-DL] | > 100 | > 100 | > 100 | > 100 | 
15 | N#Cc1cn([C@@H]2CS[C@H](CO)O2)c(=O)[nH]c1=O (racemic) [U Cyano (±)-β-DL] | > 100 | > 100 | > 100 |  | 
16 | N#Cc1cn([C@@H]2CS[C@H](CO)O2)c(=O)nc1N (racemic) [C Cyano (±)-β-DL] | > 100 | > 100 | > 100 | > 100 | 
17 | COC(=O)c1cn(C2CSC(CO)O2)c(=O)nc1N (racemic) [C Methoxycarbonyl (±)-β-DL, 5-carboxylic acid methyl ester-2′,3′-dideoxy-3′-thiacytidine] | 38.9 | > 100 | > 100 | > 100 | 
18 | C#Cc1cn([C@@H]2CS[C@H](CO)O2)c(=O)nc1N (racemic) [C Ethynyl (±)-β-DL] | > 100 | > 100 | > 100 | > 100 | 
19 | Nc1nc(=O)n([C@@H]2CS[C@H](CO)O2)cc1[N+](=O)[O-] (racemic) [C Nitro (±)-β-DL] | 100 | > 100 | > 100 | > 100 | 
20 | 5-carboxylic acid amide-2′,3′-dideoxy-3′-thiacytidine [C Carboxamide (±)-β-DL] |  | > 100 | > 100 | > 100 | EC50 (HIV-1 (strain LAV); HIV-1 in PBM cells, read-out: median effective concentration (antiviral activity)): 0.77 µM; EC50 (HSV-1F): > 100 µM; toxicity (no toxicity up to) (various cell lines): > 100 µM
